# Test results taken from patent EP1462117A1, “Method for in vivo detection of antipsychotic properties of dopamine D3 receptor ligands” (priority 2003, dated 2004).
# Where a name gives a salt, the structure may show the parent alone.
# Tests used:
# [1] = system: D3 receptor-deficient mice (D3R^-/-); experiment: MK-801-induced locomotor activity in D3 receptor-deficient mice; format: in vivo
# Description: (§1) Male Swiss mice (Iffa Credo, France), weighing 25-30 g, were housed four per cage (25 × 15 × 13 cm), on a 12 hr/12 hr light/dark cycle (lights on at 07:00 a.m.), with food and water ad libitum. […] Experiments with D3R-deficient mice were performed on male homozygous mutant mice and their wild-type littermates. […] The mice used in the present study were backcrossed 7 to 8 times.
# (§2) All experiments were conducted between 2.00 p.m. and 6.00 p.m., and the animals were kept in the test room at least 1 h before recording their activity. […] Counts for forward horizontal activity were incremented each time the animal moved from one-half part of the cage to the other, corresponding to disruption of two crossed parallel beams distant of 14 cm. In time-course studies, counts were summed every 5 min.
# (§3) In addition, another experiment was performed with two groups of 8 mice of each genotype, injected with either saline or haloperidol (0.05 mg/kg).
# (§4) Between-group differences were analyzed with the Statistica™ software using two-way analysis of variance (ANOVA) and Least Significance Difference (LSD) post-hoc test. The analysis of data obtained with the same animals evaluated on several occasions (time-course experiments), between-within univariate or multivariate ANOVA for repeated measures were used (time being the repeated measure).
# MK-801-treated mice = experiment: Resident-intruder assay in MK-801-treated mice; format: in vivo; details: MK-801 0.02 mg/kg/h for 7 days vs sham
# Description: Male mice were housed individually or in groups of five for at least 1 week prior to minipump implantation (Day 0), delivering MK-801 (0.02 mg/kg/h) or saline (Sham), and were tested at day 7. As described in Dixon et al. (1994), a group-housed male (intruder) was placed in the home cage of the individually housed male (resident), and their behaviors were video recorded for 5 min. […] The videotaped behaviors of the resident or intruder male were individually scored, by an experimenter unaware of the treatment group, for time spent in social investigation (approaching, sniffing, grooming other mouse, and sexual behavior), and in escape behavior (actively avoiding the unfamiliar congener). The scores for each behavior were subsequently averaged for each group.
# as §4, with “measure). Data from the resident-intruder assay were analyzed by analysis of variance (ANOVA), followed by a Tukey-Kramer Multiple Comparison post-hoc test.” for “measure).”
# [2] = system: D3 receptor gene-targeted (D3^-/-) mice; experiment: Continuous MK-801 infusion in D3 receptor gene-targeted mice, locomotor activity; format: in vivo
# Description: Dizocilpine, as (+)-MK-801 maleate (Sigma), dissolved in 0.9% NaCl (saline), and its respective vehicle solution, was continuously infused via osmotic minipumps (Model 1007D, Alzet Corp.). Minipumps were filled 6 h prior to implantation and placed in a sterile saline water bath at 37°C. Taking into consideration the average weight of the mice at the time of testing, and the rate of the minipump delivery (specified by the manufacturer), the MK-801 concentration was adjusted to deliver 0.01 or 0.02 mg/kg/hr (0.48 mg/kg/day). Mice were anaesthetized with chloral hydrate (400 mg/kg i.p.), and an area on the back of the mice was shaved and cleaned with 70% ethanol. […]
# (§5) Once the minipumps implanted (Day 0), the locomotor activity was measured for 1h, at days 2, 4 and 7 in an actimeter (Imetronic, Pessac, France).
# as §4, with “measure). Data from the resident-intruder assay were analyzed by analysis of variance (ANOVA), followed by a Tukey-Kramer Multiple Comparison post-hoc test.” for “measure).”
# Swiss mice [3] = experiment: MK-801 (dizocilpine)-induced and spontaneous locomotor activity, acute treatment, actimeter; format: in vivo
# Description: as §1
# Haloperidol (Janssen Pharmaceuticals, Beerse, Belgium) and clozapine (Novartis, Basel, Switzerland) were dissolved in a few drops of hydrochloric acid and distilled water, and the pH of the solution was adjusted to pH 5 to 6 using NaOH. […] The compounds were injected i.p. in a volume of 5 ml/kg.
# as §2, §4
# To assess simply the in vivo biological activity of the novel compound at the D3 receptor, the above described test, in which hyperlocomotion induced by low doses of dizocilpine is measured, was used.
# Swiss mice [4] = experiment: Locomotor hyperactivity induced by continuous infusion of MK-801 (osmotic minipumps); format: in vivo
# Description: Male Swiss mice (IFFA CREDO, France), weighing 26-28 g, were housed six per cage (25 × 15 ×13 cm), on a 12 h/12 h light/dark cycle (lights on at 07:00 a.m.), with food and water freely available. Room temperature ranged from 20° to 22°C and humidity varied between 55% and 65%.
# Dizocilpine, as (+)-MK-801 maleate (Sigma), dissolved in 0.9% NaCl (saline), and its respective vehicle solution, was continuously infused via osmotic minipumps (Model 1007D, Alzet Corp.). Minipumps were filled 6 h prior to implantation and placed in a sterile saline water bath at 37°C. Taking into consideration the average weight of the mice at the time of testing, and the rate of the minipump delivery (specified by the manufacturer), the MK-801 concentration was adjusted to deliver 0.01 or 0.02 mg/kg/hr (0.48 mg/kg/day). Mice were anaesthetized with chloral hydrate (400 mg/kg i.p.), and an area on the back of the mice was shaved and cleaned with 70% ethanol. A small incision was made, a pocket beneath the skin was formed and the minipump was placed inside the pocket in each mouse. The incision was sutured, and cleaned with 70% ethanol. The mice were returned in their home cage and in about 2 h they had recovered and were active.
# as §5
# as §4, with “measure). Data from the resident-intruder assay were analyzed by analysis of variance (ANOVA), followed by a Tukey-Kramer Multiple Comparison post-hoc test.” for “measure).”
# [5] = Plasma concentrations in monkeys (radioreceptor assay); format: in vivo; details: monkey; for time of maximal plasma concentration: in vivo; for half-life: plasma
# MPTP-intoxicated monkeys = experiment: Levodopa-induced dyskinesia, PD-like symptoms and locomotor activity in MPTP-intoxicated monkeys
# [6] = Plasma concentrations in mice; format: in vivo; details: dose inhibiting dizocilpine-induced hyperlocomotion
# Dopamine transporter = Dopamine transporter binding in monkey striatum (autoradiography); parameters: species or system Macaca fascicularis; details: dorsolateral quadrant, rostral level
# wild-type (D3R^+/+) mice = experiment: MK-801-induced locomotor activity in wild-type mice; format: in vivo; details: haloperidol 0.05 mg/kg; MK-801 […]; D3R^+/+ mice
# Description: Male Swiss mice (Iffa Credo, France), weighing 25-30 g, were housed four per cage (25 × 15 × 13 cm), on a 12 hr/12 hr light/dark cycle (lights on at 07:00 a.m.), with food and water ad libitum. […] Experiments with D3R-deficient mice were performed on male homozygous mutant mice and their wild-type littermates. […] Subsequently, these mice were backcrossed up to 8 times with C57BL6 mice. The mice used in the present study were backcrossed 7 to 8 times.
# as §2, §3, §4
# [7] = chronic infusion through osmotic minipumps for 7 days
# [8] = habituation phase, 30 min starting 5 min after injection, all doses tested
# [9] = one monkey, nafadotride 1.0 mg/kg
# [10] = same monkey, nafadotride 1.3 mg/kg
# [11] = dyskinetic levodopa-treated MPTP-monkeys
# [12] = non-dyskinetic levodopa-treated MPTP-monkeys
smiles,measurement,setting,value
"C[C@]12N[C@H](Cc3ccccc31)c1ccccc12 [MK-801, (+)-5-methyl-10,11-dihydro-5H-dibenzo[a,d]cyclohepten-5,10-imine maleate]",MK-801-induced hyperactivity compared with wild-type littermates,[1]; D3 receptor-deficient mice,two to three times less
same,"stimulatory effects of MK-801, genotype comparison","[1]; MK-801 0.3 mg/kg, D3R^+/+ vs D3R^-/- mice",no significant differences
same,"Social investigations, effect of the MK-801 treatment",MK-801-treated mice,reduced
same,"escape behavior, effect of the MK-801 treatment",MK-801-treated mice,enhancement of escape behavior
same,hypersensitivity to methamphetamine,"[2]; MK-801 0.02 mg/kg/h during 7 days, methamphetamine 1 mg/kg i.p.",completely abolished
same,attenuation of MK-801-induced hyperactivity compared to wild-type (D3^+/+) mice,[2]; MK-801 0.02 mg/kg/h for 7 days,~ 50%
same,locomotor activity after injection of MK-801,"Swiss mice [3]; MK-801 0.12 or 0.3 mg/kg i.p., after 30-min habituation",locomotor hyperactivity
same,response induced by MK-801 at 0.3 mg/kg relative to […],"Swiss mice [3]; locomotor activity, i.p.",about three
same,duration of locomotor hyperactivity after cessation of the drug delivery,Swiss mice [4]; [7],at least 4 days
same,time at which locomotor hyperactivity first appeared,Swiss mice [4]; [7],7 days
CN1CCN(C2=Nc3cc(Cl)ccc3Nc3ccccc32)CC1 [clozapine],spontaneous activity,Swiss mice [3]; [8],no effect
"CCCCN1CCCC1CNC(=O)c1cc(C#N)c2ccccc2c1OC (stereo not shown) [nafadotride, N[(n-butyl-2-pyrrolidinyl)methyl]-1-methoxy-4-cyano naphtalene-2-carboxamide]",locomotor response to MK-801,"[1]; compound 1 mg/kg, MK-801 […], D3R^-/- mice",no longer able to inhibit
same,time of maximal plasma concentration,[5],60 min
same,half-life,[5],~50 min
same,on-time duration,"MPTP-intoxicated monkeys; from activity counts, threshold at 30% of the maximal activity, over 5 hr",markedly reduced
same,LID score,MPTP-intoxicated monkeys; [9],0.5
same,PD-like symptoms score,MPTP-intoxicated monkeys; [9],0
same,score of LID,MPTP-intoxicated monkeys; [10],0.5
same,score of PD-like symptoms,MPTP-intoxicated monkeys; [10],4
same,locomotor activity (activity counts),MPTP-intoxicated monkeys; with levodopa,strongly reduced
same,LID,"MPTP-intoxicated monkeys; with levodopa, at first active dose, nafadotride on 3 out of 4 monkeys, ST 198 30-90 min after administration",reduction of LID similar to that obtained with BP 897
"O=C(/C=C/c1ccccc1)NCCCCN1CCc2ccccc2C1 [ST 198, (E)-N-(4-[1,2,3,4-tetrahydroisoquinolin-2-yl]-butyl)-3-phenylacrylamide]",time of maximal plasma concentration,[5],30 min
same,half-life,[5],~30 min
same,maximal plasma concentration,[6],3.7 ± 0.2 µM
N[C@@H](Cc1ccc(O)c(O)c1)C(=O)O [levodopa],parkinsonian score,"MPTP-intoxicated monkeys; dyskinetic monkeys under levodopa, parkinsonism corresponds to a score above 6",0.2 ± 0.1
same,LID score,"MPTP-intoxicated monkeys; five out of nine levodopa-treated monkeys (severe LID), maximum of 4, levodopa 47 to 60 mg/kg twice daily for 6-8 months",3.4 ± 0.1
same,LID score,MPTP-intoxicated monkeys; the four remaining levodopa-treated animals,< 0.4
"CN1CC=C(c2ccccc2)CC1 [MPTP, 1-methyl-4-phenyl-1,2,3,6-tetrahydropyridine]",decrease of DAT binding in Pu,Dopamine transporter; MPTP-monkeys,97.1 ± 0.3%
same,decrease of DAT binding in Cd,"Dopamine transporter; MPTP-monkeys, vs controls",96.3 ± 0.3%
same,decrease of DAT binding in Cd,Dopamine transporter; [11],95.7 ± 0.8%
same,decrease of DAT binding in Pu,Dopamine transporter; [11],95.0 ± 1.3%
same,decrease of DAT binding in Cd,Dopamine transporter; [12],96.7 ± 0.4%
same,decrease of DAT binding in Pu,Dopamine transporter; [12],97.0 ± 0.4%
O=C(CCCN1CCC(O)(c2ccc(Cl)cc2)CC1)c1ccc(F)cc1 [haloperidol],activity with MK-801,"Swiss mice [3]; MK-801 […], 60 min, compound i.p. 0.1, 0.3, 1 mg/kg (haloperidol 0.03, 0.1, 0.3 mg/kg), overall dose-response",strongly and dose-dependently blocked
same,MK-801-induced hyperactivity,"Swiss mice [3]; compound 0.03 mg/kg i.p., MK-801 […], post-hoc vs saline",significantly reduced
same,MK-801-induced hyperactivity,"Swiss mice [3]; compound 0.1 mg/kg i.p., MK-801 […], post-hoc vs saline",significantly reduced
same,MK-801-induced hyperactivity,"Swiss mice [3]; compound 0.3 mg/kg i.p., MK-801 […], post-hoc vs saline",significantly reduced
same,spontaneous activity,"Swiss mice [3]; compound 0.3 mg/kg i.p., post-hoc vs saline",significantly reduced
same,spontaneous activity,Swiss mice [3]; [8],reduction of the spontaneous activity
same,MK-801-induced hyperactivity,"Swiss mice [4]; acute administration on the 10th day after minipump implantation, clozapine 1 mg/kg, haloperidol 0.3 mg/kg, BP 897 1 mg/kg",inhibited
same,spontaneous hyperactivity,"Swiss mice [4]; subchronic treatment twice a day for 4.5 days from day 6, BP 897 1 mg/kg, haloperidol 0.3 mg/kg, recorded at least 6 hours after last administration",reversed
same,methamphetamine-induced hyperactivity,"Swiss mice [4]; subchronic treatment twice a day for 4.5 days from day 6, methamphetamine 1 mg/kg, recorded at least 6 hours after last administration",reversed
same,MK-801-induced locomotor activity,wild-type (D3R^+/+) mice,strongly inhibited
